Data from patent US6897065B1, “Method for maturation of conifer somatic embryos” (Woody Plant Biotech APS, priority 1999, dated 2005).

Tests used:
[1] = test system: mature somatic embryos of Abies nordmanniana; experiment: Germination of mature somatic embryos; conditions: embryos matured with PCIB in the maturation medium
Protocol: Well-developed mature embryos were collected for cold treatment after about 20 weeks of maturation. The isolated mature embryos were transferred to a nylon filter that was placed on a foam rubber pad in a high Petri dish. A wetted filter paper was placed in the bottom and in the lid of the Petri dish. The Petri dish was closed, sealed with two rounds of polyethylene film, wrapped with aluminium foil, and then placed at 5° C. in the dark for 4 weeks for cold treatment. After cold treatment, the nylon filter with the mature embryos was transferred to BGM-2 medium (Krogstrup et al, 1988). The BGM-2 medium included 20 g/L sucrose, 10 g/L activated charcoal (Merck 5411), and was galled with 3.5 g/L Phytagel (Gellan gum). The Petri dishes were placed in a growth room at 20° C. with a 16 hour photoperiod. After one week of germination, the nylon net was removed and the embryos were placed in direct contact with the medium. After two weeks of germination, embryos with a root were placed vertically with the root submerged in the medium. Later, the germinating embryos were transferred to soil and placed in a controlled greenhouse.

[2] = test system: newly established Abies nordmanniana embryogenic cell lines; experiment: Maturation in newly established Abies nordmanniana embryogenic cultures; format: cell-based; conditions: 8 weeks maturation, 40 μM ABA and 25 μM PCIB from week 2 to 4; cell lines less than 6 months old
Protocol: Approximately 50 cell lines were initiated from mature seeds in the same way as cell line G.78.14 (Example 1). The cultures were initiated and maintained on modified half strength BLG medium (See example 1). The cultures were less than 6 months old when they were subjected to maturation. The cultures were plated as described in Example 1. The cultures were subjected to two different maturation protocols. • 1) Maturation for 8 weeks on culture medium comprising 40 μM ABA and 5% PEG-4000. • 2) Maturation for as 1) but from week 2 to 4 the cultures were on culture medium comprising 40 μM ABA and 25 μM PCIB.

[3] = test system: Abies nordmanniana cell line G.35.8; experiment: Maturation of established Abies nordmanniana cell line G.35.8 (slowly proliferating); format: cell-based
Text: (§1) Three different cell lines of Abies nordmanniana were used in the present study. The tested cell lines have been in continuous culture for several years. The cell line G.3.8 was initiated from an immature zygotic embryo in 1989 on half strength MS medium (Murashige and Skoog, 1962) as described previously (Nørgaard and Krogstrup, 1991), Cell line G.35.8 was initiated from a mature zygotic embryo on SH medium in 1991 (Nørgaard and Krogstrup, 1995), and cell line G.78.14 was initiated in 1993 from an immature zygotic embryo on modified half strength BLG medium (Verhagen and Wann, 1989). From 1996, all cultures were maintained by biweekly subculture onto fresh half strength modified BLG medium and grown at 24+/−1° C. in the dark. Cell lines G.3.8 and G.78.14 proliferated fast on maintenance medium with a doubling time of the weight shorter than 2 weeks. Cell line G.35.8 proliferated relatively slowly with a doubling time of the weight higher than 2 weeks.
The standard maturation medium (the control) is modified from the half strength BLG proliferation medium mentioned above. […] The choice of these three culture medium components is determined primarily by the conifer species in question. […] Similarly it is known that addition of PEG-4000 improves maturation. […]

[4] = test system: embryogenic cell lines of Abies nordmanniana; experiment: Maturation of the tested established Abies nordmanniana embryogenic cell lines (G.3.8, G.35.8, G.78.14); format: cell-based
Text: as §1
(§2) The standard maturation medium (the control) is modified from the half strength BLG proliferation medium mentioned above. […] The choice of these three culture medium components is determined primarily by the conifer species in question. […] Similarly it is known that addition of PEG-4000 improves maturation. Still it may be possible to obtain just as good results with other combinations of these components and also by using other components with equivalent effects.
(§3) In this experiment, the standard maturation medium was modified by excluding PEG and by including one of the following 3 chemicals, that are traditionally expected to affect the endogenous concentration of the naturally occurring auxin IAA or to affect the normal effect of auxin in plant cells: 1) PCIB (auxin-antagonist) in a concentration of 25 or 117 μM, 2) TIBA (auxin transport inhibitor) in a concentration of 5 or 50 μM, 3) phlouroglucinol: (inhibitor of auxin degradation) (see George 1993, page 429 bottom-430) in a concentration of 30 mM. In addition to these modifications the standard maturation medium was modified by: 4) reducing the concentration of boron (precursor of indole acetic acid synthesis) to 10 μM, i.e. 20% of the normal concentration and finally by 5) including 25 μM PCIB in medium with no ABA.
(§4) The cultures were matured in the dark at 24° C.+/−1° C.
Two weeks after the last subculture, 4 grams of embryogenic cells was transferred to a 250 mL Flask (Blue cap) together with a magnet stirrer. 100 mL of liquid proliferation medium was added, and the suspension was stirred for 5 minutes at high speed on a magnet stirrer to obtain a homogenous suspension of cells and cell clumps. The culture was then pre-cultured on a gyrotory shaker (120 rpm) for one week at 24+/−1° C. in the dark. Following the pre-culture, the culture was stirred again on a magnet stirrer at high speed for 5 minutes. The culture was transferred to a 100 mL measuring cylinder and allowed to settle for 30 min. The supernatant was discharged and from the remaining culture aliquots of 1 mL were transferred with a cut pipette tip onto filter paper (Whatmann #2) placed on 25 mL of maturation medium in 10 cm Petri dishes (Nunc, Denmark). The filters containing the maturing somatic cultures were transferred onto fresh medium every 2 weeks.
FIG. 5 discloses maturation of cell line G.78.14. This cell line proliferates rapidly and produces very few normal mature embryos according to prior methods. The cell line was matured for 20 weeks on medium comprising 40 μM ABA and a) 25 μM PCIB, b) 0.4 mM phloroglucinol, or c) reduced concentration of Boron (20% of normal concentration). For control see FIG. 1a or 2a.
FIG. 6 discloses maturation of cell line G.78.14 for 20 weeks on maturation medium comprising 40 μM ABA and a) 2.5 mg/L TIBA (5 μM), or b) 25 mg/L TIBA (50 μM).

[5] = test system: Abies nordmanniana cell line G.3.8; experiment: Maturation of established Abies nordmanniana cell line G.3.8 (fast proliferating); format: cell-based
Text: as §1, §2, §3, §4
Two weeks after the last subculture, 4 grams of embryogenic cells was transferred to a 250 mL Flask (Blue cap) together with a magnet stirrer. 100 mL of liquid proliferation medium was added, and the suspension was stirred for 5 minutes at high speed on a magnet stirrer to obtain a homogenous suspension of cells and cell clumps. The culture was then pre-cultured on a gyrotory shaker (120 rpm) for one week at 24+/−1° C. in the dark. […]

[6] = test system: Picea abies embryogenic cell lines D.2.9, D.4.1, D.7.1; experiment: Maturation in embryogenic cultures of Picea abies; format: cell-based
Protocol: Three embryogenic cell lines, D.2.9, D.4.1, D.7.1, of Picea abies, initiated from immature seeds in 1989 and kept in cryostorage until 1998 as described by Nørgaard et al (1993) were used for the present experiment. The cultures were maintained on semi-solid proliferation medium BMI-S1 (Krogstrup 1986) gelled with 1.8 g/L gelrite by biweekly sub-cultures. Prior to transfer to maturation medium, 4 grams of cell mass from each cell line was weighed off and transferred to 50 ml liquid proliferation medium in a 250 ml Erlenmeyer flask. The flask also contained a sterile magnet.
To disintegrate the cultures they were stirred for 5 minutes using a magnet stirrer. Then the flasks were shaken for 15 minutes on a rotary shaker at 175 rpm. The medium with suspended cell aggregates were subsequently poured into a 100 ml measuring cylinder and allowed to settle for 30 minutes. The supernatant was discarded and aliquots of 1 ml of cells were plated on sterile Whatman #54 paper discs placed an the various maturation media. Three replicate dishes were made for each combination of cell line and treatment.
Five maturation protocols were tested. • A: Maturation on BMG-1 medium (Krogstrup et al 1988) modified by increasing the ABA concentration to 40 μM. • B: As A, but from week 2 to week 4 maturation on culture medium comprising 2.5 μM PCIB and 40 μM ABA. • C: As A, but from week 2 to week 4 maturation on culture medium comprising 5.0 μM PCIB and 40 μM ABA. • D: Maturation on medium comprising 2.5 μM PCIB and 40 μM ABA. • E: Maturation an medium comprising 5.0 μM PCIB and 40 μM ABA. Results

[7] = test system: Picea sitchensis cell lines G.1.12, G.1.13; experiment: Maturation in embryogenic cultures of Picea sitchensis; format: cell-based; conditions: anti-auxin step as for Picea abies
Protocol: Two cell lines of Picea sitchensis, G.1.12, G.1.13, initiated from cotyledons from mature embryos were used for the present study. The cultures were initiated and pretreated on BMI-S1 medium as above, but with 1000 mg/L casein hydrolysate and 10 μM 2,4-D. Pretreatment, maturation medium and anti-auxin step as for Picea abies.

[8] = test system: Abies nordmanniana cell lines; experiment: Maturation of Abies nordmanniana cell lines with different carbohydrate sources (shift from maltose to sucrose); format: cell-based; conditions: for development of mature embryos: 45 g/L as sole carbohydrate source during the entire maturation period (treatments A, B)
Protocol: Except from the carbohydrates, the basic maturation medium was composed as described for the control in example 1. However, PCIB was included in a prior determined optimum concentration and period for each of the tested cell lines. Four treatments with different combinations of carbohydrates were tested during maturation: • A) Maturation on culture medium comprising 45 g/L sucrose as carbohydrate source during the entire maturation period. • B) Maturation on culture medium comprising 45 g/L maltose as carbohydrate source during the entire maturation period. Typical embryo from the treatment is disclosed in the left picture of FIG. 9. • C) Maturation on culture medium with 45 g/L maltose during the first part of the maturation period, followed by a shift to maturation medium comprising 22.5 g/L sucrose and 22.5 g/L maltose during the last two weeks of the maturation period. Typical embryo from the treatment is disclosed in the right picture of FIG. 9. • D) Maturation on culture medium with 45 g/L maltose during the first part of the maturation period, followed by a shift to maturation medium comprising 45 g/L sucrose as carbohydrate source for the last two weeks of the maturation period. Typical embryo from the treatment is disclosed in the center picture of FIG. 9. Results

[9] = 25 μM PCIB + 40 μM ABA from week 4 to 8 of the 20 week maturation period
[10] = medium including both ABA and 25 μM PCIB

## CC(C)(Oc1ccc(Cl)cc1)C(=O)O [PCIB, p-Chlorophenoxyisobutyric acid]
[1]
  embryos that developed both shoot and root on germination: ~100%
[2]
  production of mature somatic embryos: almost all cell lines produced high numbers of mature somatic embryos
[3]; 25 μM PCIB + 40 μM ABA during the entire maturation period
  number of well formed mature embryos: about 15 embryos per Petri dish
[3]; [9]
  number of well formed mature embryos: about 250 embryos per Petri dish
[4]; 25 μM PCIB, ABA excluded
  proliferation during maturation: proliferation was reduced
[4]; 25 μM PCIB, ABA excluded, 20 weeks, all tested cell lines
  development of mature embryos: only few and clearly abnormal and precociously germinating embryos were developed
[4]; higher concentrations than 25 μM of PCIB
  embryo morphology (abnormality): the embryos developed asymmetrically with one major and one minor cotyledon (FIG. 4C) or with only one cotyledon
[4]; [10]
  development of embryos during maturation: high numbers of embryos developed
  proliferation during maturation: proliferation was reduced
[4]; slowly proliferating cell lines, ABA and 25 μM PCIB for longer periods than 4 weeks
  embryo morphology (abnormality): embryos with only two symmetric cotyledons developed
[5]; 25 μM PCIB + 40 μM ABA during the entire 20 week maturation period
  number of well-formed mature embryos: about 125 embryos per Petri dish
[5]; [9]
  number of well formed mature embryos: about 40 embryos per Petri dish
[5]; 25 μM PCIB during the entire maturation period
  proliferation during maturation: strongly reduced
[5]; 25 μM PCIB from week 4 to 8 of the 20 week maturation period
  proliferation during maturation: reduced slightly
[6]; cell line D.2.9, anti-auxin step (2.5 or 5.0 μM PCIB + 40 μM ABA)
  production of mature somatic embryos: a high number of mature somatic embryos are in turn produced
[6]; cell lines D.4.1 and D.7.1 (A-type), 2.5 or 5.0 μM PCIB + 40 μM ABA
  number of somatic embryos compared with no anti-auxin step: produced higher numbers of somatic embryos
[6]; cell lines D.4.1 and D.7.1, 2.5 or 5.0 μM PCIB + 40 μM ABA
  proliferation during maturation: reduce the proliferation during maturation
[7]
  general appearance of the cultures: improved
  proliferation during maturation: proliferation was clearly reduced

## OC[C@H]1O[C@@](CO)(O[C@H]2O[C@H](CO)[C@@H](O)[C@H](O)[C@H]2O)[C@@H](O)[C@@H]1O [sucrose]
[8]
  development of mature embryos: no well developed mature embryos were produced
[8]; shift from maltose to medium including sucrose during the last two weeks of maturation (treatments C and D)
  size of the mature embryos: clear increase in the size of the mature embryos
[8]; shift to 45 g/L sucrose for the last two weeks
  reduction of the maturation period, treatment D compared to treatment B: about four
[8]; treatment D: 45 g/L maltose, shift to 45 g/L sucrose for the last two weeks
  average fresh weight of mature embryos: about 120 mg per embryo

## OC[C@H]1O[C@H](O[C@H]2[C@H](O)[C@@H](O)C(O)O[C@@H]2CO)[C@H](O)[C@@H](O)[C@@H]1O (mixture of isomers) [maltose]
[8]
  development of mature embryos: high numbers of embryos were produced
[8]; treatment B: 45 g/L maltose during the entire maturation period
  average fresh weight of mature embryos: about 50 mg

## Oc1cc(O)cc(O)c1 [phloroglucinol]
[4]; phloroglucinol 0.4 mM + 40 μM ABA
  proliferation during maturation: proliferation was increased
[4]; phloroglucinol 0.4 mM + 40 μM ABA, 20 weeks
  development of well developed embryos: no well developed embryos were found

## O=C(O)c1cc(I)cc(I)c1I [TIBA, 2,3,5-tri-iodobenzoic acid]
[4]; TIBA 5 and 50 μM + 40 μM ABA, 20 weeks
  development of mature embryos: only very few, and mostly abnormal, mature embryos developed
[4]; TIBA 5 and 50 μM + 40 μM ABA, all tested cell lines
  proliferation on the maturation medium: strong reduction of the proliferation
